PMC6413231, “o-Vanillin Derived Schiff Bases and Their Organotin(IV) Compounds: Synthesis, Structural Characterisation, In-Silico Studies and Cytotoxicity” (International Journal of Molecular Sciences, 2019)
Where two headings read alike, the source gives them in different places.

What was measured:
[1] = system: MIA (pancreatic) cancer cells; test: MTT growth inhibition assay, MIA; format: cell-based; details: 72 h, ± standard error, read-out: Growth Inhibition Concentration, GI50
Experimental: (§1) The Schiff bases and their organotin(IV) compounds were screened for in vitro cytotoxicity against a panel of 12 cancer cell lines: EJ-28 (muscle invasive bladder), RT-112 (minimum-invasive bladder), HT29 (colon), U87 and SJ-G2 (glioblastoma), MCF-7 (breast), A2780 (ovarian), H460 (lung), A431 (skin), DU145 (prostate), BE2-C (neuroblastoma), MIA (pancreatic) and one normal breast cell line (MCF-10A) using the MTT metabolic assay (Figure 6). After 72 h of incubation, a dose-dependent […] effect towards the cancer cell lines was measured at very low micromolar (µM) concentrations of the compounds. The growth inhibition concentration of the Schiff bases and their organotin(IV) compounds required to inhibit 50% cell proliferation relative to the cells that were treated with DMSO (control) are given in Table 2. The stability of these compounds was assessed in DMSO as well as in a mixture of DMSO-H2O. The absorbance obtained from UV-vis spectroscopy analysis was monitored for 72 h, and an unchanged pattern in the spectra was indicative that the compounds were stable in both the solvent systems tested.
(§2) For HT29 (colon), U87 and SJ-G2 (glioblastoma), MCF-7 (breast), A2780 (ovarian), H460 (lung), A431 (skin), Du145 (prostate), BE2-C (neuroblastoma), MIA (pancreas) cell lines and one normal breast cell line, MCF-10A (normal breast), the MTT assays were performed using the following method:
(§3) Stock solutions were prepared as follows and stored at −20 °C: Trial compounds were stored as 10 mM solutions in DMSO. All cell lines were cultured in a humidified atmosphere 5% CO2 at 37 °C. The cancer cell lines were maintained in Dulbecco’s modified Eagle’s medium (DMEM) (Trace Biosciences) supplemented with 10% foetal bovine serum, 10 mM sodium bicarbonate, penicillin (100 IU/mL), streptomycin (100 μg/mL) and glutamine (4 mM). The normal cell line, MCF-10A was cultured in DMEM:F12 (1:1) cell culture media, 5% heat inactivated horse serum, supplemented with penicillin (50 IU/mL), streptomycin (50 μg/mL), 20mM Hepes, L-glutamine (2 mM), epidermal growth factor (20 ng/mL), hydrocortisone (500 ng/mL), cholera toxin (100 ng/mL) and insulin (10 μg/mL).
(§4) Cells in logarithmic growth were transferred to 96-well plates. Cytotoxicity was determined by plating cells in duplicate in 100 μL medium at a density of 2500–4000 cells/well. On day 0 (24 h after plating), when the cells were in logarithmic growth, 100 μL medium, with or without the test agent, was added to each well. After 72 h drug exposure, growth inhibitory effects were evaluated using the MTT (3-[4,5-dimethylthiazol-2-yl]-2,5-diphenyltetrazolium bromide) assay and absorbance read at 540 nm. Percentage growth inhibition was determined at a fixed drug concentration of 25 μM. A value of 100% was indicative of complete cell growth inhibition. Those analogues showing appreciable percentage growth inhibition underwent further dose-response analysis allowing for the calculation of a GI50 value. This value is the drug concentration at which cell growth is 50% inhibited based on the difference between the optical density values on day 0 and those at the end of drug exposure.

[2] = system: BE2-C (neuroblastoma) cancer cells; test: MTT growth inhibition assay, BE2-C; format: cell-based; details: 72 h, ± standard error, read-out: Growth Inhibition Concentration, GI50
Experimental: as §1, §2, §3, §4

[3] = system: RT-112 (minimum-invasive bladder) cancer cells; test: MTT cytotoxicity assay, RT-112; format: cell-based, human; details: RT-112 cells, 72 h, ± standard error, read-out: Growth Inhibition Concentration, GI50
Experimental: as §1
(§5) The inhibitory effect of the synthesised compounds on the growth of bladder (EJ-28 and RT-112) cancer cells was evaluated by MTT assay. […] RT-112 and EJ-28, human bladder cancer cell lines used in this study (ATCC, Manassas, VA, USA) were cultured in RPMI-1640 (High glucose) medium supplemented with 10% fetal bovine serum containing 1% penicillin. The cells were cultured at 37 °C in a humidified atmosphere of 5% CO2 in air. Cells were seeded in 96-well plates at 6000 cells per well for 24 h, then they were treated with different concentrations of compounds for 72 h. The medium was subsequently removed and the wells were washed with 200 µL of phosphate buffer saline. Aliquots of 20 µL of 3-(4,5-dimethylthiazol-2-yl)-2,5-diphenyltetrazolium bromide (MTT) was added to each well and incubated for 4 h at 37 °C. Aliquots of 200 µL of media was then removed from each well and 200 µL of DMSO was added. Optical density (OD) was measured using an ELISA plate reader at 570 nm. Control wells (100% viability), containing media and DMSO, were included in all the experiments. All data points represented an average of triplicate assays. Cytotoxicity was expressed as CD50, i.e., the concentration that reduced the absorbance of treated cells by 50% with reference to the control (untreated cells).

[4] = system: U87 (glioblastoma) cancer cells; test: MTT growth inhibition assay, U87; format: cell-based; details: 72 h, ± standard error, read-out: Growth Inhibition Concentration, GI50
Experimental: as §1, §2, §3, §4

[5] = system: EJ-28 (muscle invasive bladder) cancer cells; test: MTT cytotoxicity assay, EJ-28; format: cell-based, human; details: EJ-28 cells, 72 h, ± standard error, read-out: Growth Inhibition Concentration, GI50
Experimental: as §1, §5

H460 (lung) cancer cells = test: MTT growth inhibition assay, H460; format: cell-based; details: ± standard error, read-out: Growth Inhibition Concentration, GI50
Experimental: as §1, §2, §3, §4

[6] = system: MCF-10A (normal breast) cell line; test: MTT growth inhibition assay, MCF10A; format: cell-based; details: MCF10A normal breast cells, 72 h, ± standard error, read-out: Growth Inhibition Concentration, GI50
Experimental: as §1, §2, §3, §4

[7] = system: SJ-G2 (glioblastoma) cancer cells; test: MTT growth inhibition assay, SJ-G2; format: cell-based; details: for GI50: MTT, 72 h, ± standard error, read-out: Growth Inhibition Concentration, GI50
Experimental: as §1, §2, §3, §4

[8] = system: Du145 (prostate) cancer cells; test: MTT growth inhibition assay, Du145; format: cell-based; details: ± standard error, read-out: Growth Inhibition Concentration, GI50
Experimental: as §1, §2, §3, §4

[9] = system: MCF-7 (breast) cancer cells; test: MTT growth inhibition assay, MCF-7; format: cell-based; details: 72 h, ± standard error, read-out: Growth Inhibition Concentration, GI50
Experimental: as §1, §2, §3, §4

[10] = system: HT29 (colon) cancer cells; test: MTT growth inhibition assay, HT29; format: cell-based; details: ± standard error, read-out: Growth Inhibition Concentration, GI50
Experimental: as §1, §2, §3, §4

A431 (skin) cancer cells = test: MTT growth inhibition assay, A431; format: cell-based; details: ± standard error, read-out: Growth Inhibition Concentration, GI50
Experimental: as §1, §2, §3, §4

calf thymus DNA (CT-DNA) = test: CT-DNA binding by UV-vis absorption titration; details: for Bathochromism Shift (nm) / Hypochromism, (%): CT-DNA, UV-vis absorption titration; for Gibbs Free Energy: interaction with CT-DNA
Experimental: Both theoretical and experimental DNA binding of the synthesised organotin(IV) compounds with DNA were investigated. The interaction of organotin(IV) compounds with CT-DNA was elucidated via UV-visible absorption spectroscopy. […] The absorption spectra of diphenyltin(IV) compounds at a constant concentration (50 μM) in the absence and the presence of different concentrations of CT-DNA are shown in Figure 8. Upon increasing concentrations of CT-DNA, hypochromism and bathochromism occurred at around 350–377 nm indicating strong π–π stacking interactions between the aromatic chromophore of the organotin(IV) compounds and the nitrogeneous pair of the DNA strand [11, 70]. The same hypochromism and bathochromism shifts were also observed in other transitions. In order to compare the binding strength of the organotin(IV) compounds to CT-DNA, the intrinsic binding constants (Kb) were quantitatively determined and are presented in Table 3.
DNA binding experiments were carried out at 25°C. DNA concentration per nucleotide was determined using the molar absorption coefficient (6600 M^−1 cm^−1) at 260 nm. […] Absorption titration experiments were performed maintaining the concentration of the organotin(IV) compounds solutions at 50 µM and gradually increasing the concentration of CT-DNA. The organotin(IV) compounds were dissolved in DMSO and diluted with Tris-HCI buffer at room temperature (25 °C). The solutions were scanned over 230–600 nm. Absorbance values were recorded 10 min after the addition of DNA solution. The binding constant, Kb was determined using the equation: [DNA]/(εa−εf)=[DNA]/(εb−εf)+1/Kb(εb−εf) where [DNA] is the concentration of DNA in base pairs, εa corresponds to the apparent molar extinction coefficient Aabs/[M], εf corresponds to the extinction coefficient for the free organotin [M] and εb corresponds to the extinction coefficient for the fully bound organotin compound.

[11] = system: A2780 (ovarian) cancer cells; test: MTT growth inhibition assay, A2780; format: cell-based; details: 72 h, ± standard error, read-out: Growth Inhibition Concentration, GI50
Experimental: as §1, §2, §3, §4

Compound: COc1cccc2c1[O][Sn]([CH3])([CH3])[S]C(SCc1ccccc1)=NN=C2 [Me2Sn(SBoVa), Dimethyltin(IV) [S-Benzyl-β-N-(2-hydroxy-3-methoxybenzylmethylene) dithiocarbazate]]
- GI50 [1]: 5 ± 0.09 µM
- GI50 [2]: 2.7 ± 0.13 µM
- GI50 [3]: 2.4 ± 0.33 µM
- GI50 [4]: 4.5 ± 0.19 µM
- GI50 [5]: 3.4 ± 0.3 µM
- GI50 (H460 (lung) cancer cells; 72 h): 3.8 ± 0.1 µM
- GI50 [6]: 2.8 ± 0.41 µM
- GI50 [7]: 2.1 ± 0.12 µM
- GI50 ([8]; 72 h): 3.2 ± 0.13 µM
- GI50 ([9]; MCF-7 cells): 2.5 ± 0.21 µM
- GI50 ([10]; 72 h): 2.8 ± 0.15 µM
- GI50 (A431 (skin) cancer cells; 72 h): 3.2 ± 0.03 µM
- Bathochromism Shift (nm) (calf thymus DNA (CT-DNA)): 1 nm
- Hypochromism, (%) (calf thymus DNA (CT-DNA)): 53.26%
- Gibbs Free Energy (calf thymus DNA (CT-DNA)): -8.99 kcal/mol
- GI50 [11]: 3.2 ± 0.03 µM

Compound: COc1cccc(/C=N/NC(=S)SCc2ccccc2C)c1O [S2MoVaH, S-2-Methybenzyl-β-N-(2-hydroxy-3-methoxybenzylmethylene) Dithiocarbazate]
- GI50 ([1]; Pancreatic cancer cell): 4.9 ± 0.37 µM
- GI50 ([2]; Homo sapiens, BE(2)-C): 3.1 µM
- GI50 ([3]; Homo sapiens): 4.6 ± 0.45 µM
- melting point: 180 to 183 °C
- GI50 ([4]; Homo sapiens, U-87 MG): 4.3 ± 0.3 µM
- GI50 ([5]; Homo sapiens): 3.4 ± 0.47 µM
- GI50 (H460 (lung) cancer cells; Homo sapiens, NCI-H460, 72 h): 4.3 ± 0.12 µM
- GI50 ([6]; Homo sapiens, MCF-10A): 3.1 ± 0.07 µM
- GI50 [7]: 3 ± 0.09 µM
- GI50 ([8]; Homo sapiens, DU-145, 72 h): 4.1 ± 0.09 µM
- GI50 ([9]; Homo sapiens, MCF7, MCF-7 cells): 2.7 ± 0.21 µM
- GI50 ([10]; Homo sapiens, HT-29, 72 h): 3.9 ± 0.71 µM
- GI50 (A431 (skin) cancer cells; Homo sapiens, A-431, 72 h): 3.8 ± 0.03 µM
- GI50 ([11]; Homo sapiens): 3.2 ± 0.15 µM

Compound: COc1cccc2c1[O][Sn]([c]1ccccc1)([c]1ccccc1)[S]C(SCc1ccccc1)=NN=C2 [Ph2Sn(SBoVa), Diphenyltin(IV) [S-Benzyl-β-N-(2-hydroxy-3-methoxybenzylmethylene) dithiocarbazate]]
- GI50 [1]: 0.43 ± 0.04 µM
- GI50 [2]: 0.5 ± 0.05 µM
- GI50 [3]: 0.58 ± 0.29 µM
- GI50 [4]: 1.1 ± 0.39 µM
- GI50 [5]: 0.32 ± 0.05 µM
- GI50 (H460 (lung) cancer cells; 72 h): 2.2 µM
- GI50 [6]: 1.3 ± 0.2 µM
- greater activity than respective Schiff base ([7]; GI50 comparison): 3 fold
- GI50 [7]: 0.74 ± 0.15 µM
- GI50 ([8]; 72 h): 1.4 ± 0.33 µM
- GI50 ([9]; MCF-7 cells): 0.9 ± 0.16 µM
- GI50 ([10]; 72 h): 1.2 ± 0.22 µM
- GI50 (A431 (skin) cancer cells; 72 h): 1.6 ± 0.07 µM
- Bathochromism Shift (nm) (calf thymus DNA (CT-DNA)): 12 nm
- Hypochromism, (%) (calf thymus DNA (CT-DNA)): 70.72%
- Gibbs Free Energy (calf thymus DNA (CT-DNA)): -8.29 kcal/mol
- GI50 [11]: 0.23 ± 0.03 µM
